US20080015147A1, “Method for inhibiting neuronal cell death” (priority 2006, published 2008)
Entries after “also recorded” stand apart in the source; their conditions may differ.

Key:
Type in all cases: cell-based, mouse
[1] = test system: superoxide copper chaperone (CCSD); experiment: Superoxide copper chaperone (CCSD) expression by real-time PCR; conditions: pH 8.4
N38 cells [2] = experiment: Cell proliferation by direct hemocytometer counts; conditions: for total cell numbers relative to vehicle: 48 hrs, 2×10^−7 M
Method: At 24 and 48 hrs, the medium was replaced with medium buffered at pH 6.8, 7.4, 8.0 or 8.4. Half of the cell groups received (2×10^−7 M) TCAP-1, whereas the other half received phosphate buffered saline (PBS) pH 7.4 containing 8 g NaCl, 0.2 g KCl, 1.4 g Na2HPO4, 0.2 g KH2PO4 in. 800 mL ddH2O. For all groups, 4 replicates were run. Digital pictures were taken at 24, 48 and 72 hrs using an Olympus IX&1 inverted microscope at a magnification of 200× and analyzed using LabWorks 4.0 Image Acquisition and Analysis software (UltraViolet Products Ltd).
(§1) The effect of TCAP-1 on cell proliferation at each pH was examined by direct counts using a hemocytometer and indirectly by assessing mitochondrial activity using a colorimetric MTT (3-[4,5-dimethylthiazol-2-yl]-2,5-diphenyl tetrazolium bromide) assay on cultured N38 cells. For hemocytometer counts, the cultures were incubated for 24 and 48 hrs. The cells were suspended using 1 ml of 0.25% Trypsin with EDTA (Gibco-Invitrogen, Burlington, Canada), centrifuged at 1600 RPM for 4 min, and resuspended with PBS. The cells in 50 μl aliquots were vortexed and counted on a hemocytometer.

N38 cells [3] = experiment: MTT assay (mitochondrial activity); conditions: for MTT activity (optical density): 48 hrs, 2×10^−7 M
Method: as §1
A (3-4,5-dimethylthiazol-2-yl]-2,5-diphenyl tetrazolium bromide) MTT assay was conducted using the In Vitro Toxicology Assay Kit: MTT based (Sigma, St. Louis). The cells were cultured for the MTT assay at 24 and 48 hours and were incubated at 37° C. in 5% CO2 for 3 hrs in the presence of MTT 200 μl/2 ml medium. The samples were mixed by shaking the plate horizontally for 30 min. The background absorbance of the multi-well plates was determined at 690 nm and subtracted from the 570 nm measurement.

caspase 3 = experiment: Caspase 3 colorimetric assay
Method: Caspase 8 and 3 colorimetric assays were performed on the N38 cells at all pH conditions. The assay was based on the detection of the chromophore pNA after cleavage from the labeled substrate IETD-pNA and DEVD-pNA for caspase 8 and 3, respectively. Comparison of the pNA absorbance from the suspected apoptotic sample was compared to the uninduced neutral pH sample. Caspase 8 and 3 were analysed using the Caspase-3 Colorimetric Activity Assay (Chemicon, Temecula USA) and Caspase-8 Colorimetric Activity Assay (Chemicon, Temecula USA). The cells from each pH treatment described previously at 24 and 48 hrs were removed using a cell scraper and centrifuged at 1500 rpm for 10 minutes. The cells were resuspended in 350 μl of chilled cell lysis buffer containing 500 μl PBS, 5 μl 1% Triton ×100 (Sigma, St. Louis), 25 μl proteinase inhibitor cocktail set III (VWR, Mississauga), 0.5 μM dithiothreitol (DTT) (Sigma, St. Louis) and 2.5 μl phenylmethylsulphonylfluoride (PMSF) diluted in 1 mL of methanol (EM Science, Gibbstown), then incubated on ice for 10 min and centrifuged for 5 minutes at 10,000 rpm. The supernatant, consisting of cytosolic extracts, was transferred to a new tube and a bicinchoninic acid (BCA) protein assay (Pierce, Rockford) was conducted to determine total protein concentration. The absorbance of each sample was measured on a SPECTRAmax Microplate spectrophotometer at 405 nm after an incubation period of 2 hours at 37° C. Changes in caspase 3 activity were determined by comparing the absorbance reading from the induced sample with the level of the uninduced control. Background readings from the buffer were subtracted from the reading of both the induced (pH 6.8, 8.0, 8.4) and uninduced (pH 7.4) samples before calculating changes in caspase 3 activity. The same was done for the detection of caspase 8. As a control, N38 cells were cultured with pH 7.4 DMEM and incubated for 4 days, apoptosis was then induced using 10 μM/ml etoposide and lysed according to the above protocol and used a control for all subsequent caspase 3 detection. All assays were performed with 4 replications.

catalase = experiment: Catalase assay on pH treated cells
Method: A catalase assay was performed on the pH treated cells in order to determine whether TCAP-1 was conferring survivability to the cells via upregulation of catalase and thus increasing H2O 2 breakdown into H2O and O2 (FIG. 9B). […] Bovine liver was also assayed as a positive control.

With “teneurin C-terminus associated peptide [TCAP-1]” the “CCSD expression increase over vehicle treated cells” value [1] was ~4.5 fold, the “total number of cells vs vehicle” value (N38 cells [2]; 24 hrs, any pH condition) was “no significant differences in the total number of cells” and the “total cell numbers relative to vehicle” value (N38 cells [2]; pH 6.8) was “increased the number of cells”. For the same substance, the “total cell numbers relative to vehicle” value (N38 cells [2]; pH 6.8, listed as TCAP) was “inhibited the decrease in total cell numbers”, the “total cell numbers relative to vehicle” value (N38 cells [2]; pH 8.0) was “increased the number of cells” and the “total cell numbers relative to vehicle” value (N38 cells [2]; pH 8.0, listed as TCAP) was “inhibited the decrease in total cell numbers”. The “total cell numbers relative to vehicle” value (N38 cells [2]; pH 8.4) was “increased the number of cells”, the “total cell numbers relative to vehicle” value (N38 cells [2]; pH 8.4, listed as TCAP) was “inhibited the decrease in total cell numbers” and the MTT activity (N38 cells [3]; pH 6.8) was “did not induce a significant effect on MTT activity”. The MTT activity (N38 cells [3]; pH 7.4) was “did not induce a significant effect on MTT activity”, the “MTT activity (optical density)” value (N38 cells [3]; pH 8.0) was “significant increase in optical density; also recorded: increased the number of viable cells” and the “MTT activity (optical density)” value (N38 cells [3]; pH 8.4) was “significant increase in optical density; also recorded: increased the number of viable cells”. For the same substance, the “relative level of caspase 3 activity, of the etoposide-induced increase” value (caspase 3; pH 6.8) was ~40%, the “caspase 3 activity vs vehicle” value (caspase 3; pH 6.8, P<0.05) was “increased caspase 3 activity” and the “caspase 3 activity vs vehicle” value (caspase 3; pH 8.0) was “no significant differences in caspase 8 and 3 activity”. The “caspase 3 activity vs vehicle” value (caspase 3; pH 8.4) was “no significant differences in caspase 8 and 3 activity”, the “catalase levels vs vehicle” value (catalase; pH 6.8) was “no significant effects” and the “catalase levels vs vehicle” value (catalase; pH 7.4) was “no significant effects”. The “catalase levels vs vehicle” value (catalase; pH 8.0, p<0.01) was “significant TCAP-1 effect” and the “catalase levels vs vehicle” value (catalase; pH 8.4, p<0.001) was “significantly increased catalase levels”.
